In patent publication US8901294B2, “MRI contrast agent having gadolinium complex” (priority 2010, dated 2014):
Where two headings read alike, the source gives them in different places. Marks after values point to notes of the source that are not given here.

Tests used:
[1] = Transmetalation kinetics: evolution of paramagnetic relaxation rate R1P(t)/R1P(0) in presence of ZnCl2; format: physicochemical; conditions: phosphate-buffered solution pH 7.4, 2.5 mmol/L Gd-complex and 2.5 mmol/L ZnCl2, 72 hours
From the text: […]. The relative value of R1^P at time t, R1^P(t)/R1^P(0), is therefore a good estimate of the extent of transmetalation. The evolution of R1^P(t)/R1^P(0) over time gives relevant information about the kinetics of the reaction, whereas the plateau value theoretically reached at t=∞ will reflect the thermodynamic aspect.
Accordingly, in order to investigate the transmetalation kinetics of the gadolinium complexes according to the present invention, the evolution of water proton relaxation rate (R1^P) of a phosphate-buffered solution (pH 7.4) containing 2.5 mmol/L of Gd-complex and 2.5 mmol/L of ZnCl2 with time was measured. To measure the change in the relaxation rate, 10 μL of a ZnCl2 solution (250 mmol/L) was added to 1 mL of a buffered solution of the Gd-complex and the mixture was vigorously stirred. The same experiment was performed with Dotarem®, Omniscan®, Multihance®, Primovist® and ethyl tranexamate (6) with zinc acetate for comparison. The measurement was made on a 3T whole body system (Magnetom Tim Trip; Simens, Germany) at room temperature.

[2] = reference values from ref. 8 or 9; cited from earlier work
[3] = for logKCuL(PH7.4) (conditional stability constant): pH 7.4; for pCu: pM = −log[M]free at pH7.4, [M]total = 1 μmol/dm^3, [L]total = 1.1 μmol/dm^3
[4] = for logKsel(Gd/Ca) (selectivity constant): Gd over Ca; for logKsel(Gd/Ca) (selectivity constant) / logKsel(Gd/Cu) (selectivity constant) / logKsel(Gd/Zn) (selectivity constant): 25° C., μ = 0.10M (KCl); for logKsel(Gd/Cu) (selectivity constant): Gd over Cu; for logKsel(Gd/Zn) (selectivity constant): Gd over Zn; for logKGdL(pH7.4) (conditional stability constant): pH 7.4; for pGd: pM = −log[M]free at pH7.4, [M]total = 1 μmol/dm^3, [L]total = 1.1 μmol/dm^3
[5] = for logKCaL(pH7.4) (conditional stability constant): pH 7.4; for pCa: pM = −log[M]free at pH7.4, [M]total = 1 μmol/dm^3, [L]total = 1.1 μmol/dm^3
[6] = 25° C., μ = 0.10M (KCl)
[7] = for logKZnL(pH7.4) (conditional stability constant): pH 7.4; for pZn: pM = −log[M]free at pH7.4, [M]total = 1 μmol/dm^3, [L]total = 1.1 μmol/dm^3
[8] = Relaxation times (T1, T2) and relaxivities (R1, R2) at 1.5 T; format: physicochemical; conditions: 1.5 T; mean value(±SD)
Description: T1 measurements were carried out using an inversion recovery method with a variable inversion time (TI) at 1.5 T. The MR images were acquired at 35 different TI values ranging from 50 to 1750 ms. T1 relaxation times were obtained from the nonlinear least-squares fit of the signal intensity measured at each T1 value. For T2 measurements the CPMG (Carr-Purcell-Meiboon-Gill) pulse sequence was adapted for multiple spin-echo measurements. Thirty-four images were acquired with 34 different echo time (TE) values. T2 relaxation times were obtained from the nonlinear least-squares fit of the mean pixel values for the multiple spin-echo measurements at each echo time. Relaxivities were then calculated as an inverse (R=1/s·mM) of relaxation time per mM. The determined relaxation times and relaxivities are finally transformed to a phantom map. The phantom images were obtained with the same concentration of Dotarem® and gadolinium complexes or comparative purposes. […] Table 2 summarizes the relaxation times and relaxivities for gadolinium complexes of the present invention along with other Gd-complexes.

[9] = literature data, cited from earlier work; for LogK [GdL]/[Gd][L] (stability constant): 25° C., μ = 0.10M (KCl); for logKsel(Gd/Ca) (selectivity constant): Gd over Ca; for logKsel(Gd/Cu) (selectivity constant): Gd over Cu; for logKsel(Gd/Zn) (selectivity constant): Gd over Zn; for pGd: pM = −log[M]free at pH7.4, [M]total = 1 μmol/dm^3, [L]total = 1.1 μmol/dm^3
[10] = literature data, cited from earlier work; for LogK [CaL]/[Ca][L] (stability constant): 25° C., μ = 0.10M (KCl)
[11] = 25° C., μ = 0.10M (KCl); literature data; cited from earlier work
[12] = literature data, cited from earlier work; for LogK [ZnL]/[Zn][L] (stability constant): 25° C., μ = 0.10M (KCl); for pZn: pM = −log[M]free at pH7.4, [M]total = 1 μmol/dm^3, [L]total = 1.1 μmol/dm^3
[13] = literature data, cited from earlier work; for LogK [CuL]/[Cu][L] (stability constant): 25° C., μ = 0.10M (KCl); for pCu: pM = −log[M]free at pH7.4, [M]total = 1 μmol/dm^3, [L]total = 1.1 μmol/dm^3

Structure (SMILES)	logKCuL(PH7.4) (conditional stability constant) [3]	pCu [3]	logKsel(Gd/Ca) (selectivity constant) [4]	logKsel(Gd/Cu) (selectivity constant) [4]	logKsel(Gd/Zn) (selectivity constant) [4]	logKGdL(pH7.4) (conditional stability constant) [4]	pGd [4]	logKCaL(pH7.4) (conditional stability constant) [5]	pCa [5]	LogK [H2L]/[HL][H] (protonation constant) [6]	LogK [H3L]/[H2L][H] (protonation constant) [6]	LogK [HL]/[L][H] (protonation constant) [6]	logKZnL(pH7.4) (conditional stability constant) [7]	LogK [GdL]/[Gd][L] (stability constant) [9]	logKGdL(pH7.4) (conditional stability constant) [9]	LogK [H2L]/[HL][H] (protonation constant) [11]	LogK [H3L]/[H2L][H] (protonation constant) [11]	LogK [H4L]/[H3L][H] (protonation constant) [11]	LogK [HL]/[L][H] (protonation constant) [11]	ΣpKa (overall basicity) [11]	other results
CCOc1ccc(CC(CN(CCN(CC(=O)[O-])CC(=O)[O-])CC(=O)[O-])N(CC(=O)[O-])CC(=O)[O-])cc1.[Gd+3].[Na+].[Na+] (stereo not drawn) [Primovist]																					pattern of evolution of the paramagnetic relaxation rate R1P(t)/R1P(0) (in words) [1]: drastic decrease in the rate; R1 relaxivity [2]: 4.7 ± 0.2 mM⁻¹ s⁻¹; R2 relaxivity [2]: 5.1 ± 0.6 mM⁻¹ s⁻¹; T1 relaxation time [2]: 213.15 ± 9.07 ms; T2 relaxation time [2]: 198.83 ± 23.4 ms
O=C(O)CN1CCN(CC(=O)O)CCN(CC(=O)NCC2CCC(C(=O)O)CC2)CCN(CC(=O)O)CC1 (stereo not drawn) [Compound 4a, DO3A-tranexamic acid]	11.70	10.70	10.56	7.02	7.87	18.73	17.73	8.16	7.16	8.91	4.93	11.73	10.86								LogK [H4L]/[H3L][H] (protonation constant) [6]: 4.87; pZn [7]: 9.86
CNC[C@H](O)[C@@H](O)[C@H](O)[C@H](O)CO.O=C([O-])CN1CCN(CC(=O)[O-])CCN(CC(=O)O)CCN(CC(=O)[O-])CC1.[Gd+3] [Dotarem]																					R1 relaxivity [8]: 3.7 ± 0.04 mM⁻¹ s⁻¹; R2 relaxivity [8]: 4.1 ± 0.21 mM⁻¹ s⁻¹; T1 relaxation time [8]: 270.30 ± 2.92 ms; T2 relaxation time [8]: 244.54 ± 12.5 ms
O=C(O)CN1CCN(CC(=O)O)CCN(CC(=O)O)CCN(CC(=O)O)CC1 [DOTA]														25.30	18.33	9.68	4.55	4.13	12.09	30.45	logKsel(Gd/Ca) (selectivity constant) [9]: 8.07; logKsel(Gd/Cu) (selectivity constant) [9]: 2.67; logKsel(Gd/Zn) (selectivity constant) [9]: 4.25; pGd [9]: 19.2; LogK [CaL]/[Ca][L] (stability constant) [10]: 17.23; logKCaL(pH7.4) (conditional stability constant) [10]: 10.26; LogK [ZnL]/[Zn][L] (stability constant) [12]: 21.05; logKZnL(pH7.4) (conditional stability constant) [12]: 14.08; pZn [12]: 15.19; LogK [CuL]/[Cu][L] (stability constant) [13]: 22.63; logKCuL(PH7.4) (conditional stability constant) [13]: 15.66; pCu [13]: 14.05
CCOC(=O)C1CCC(CNC(=O)CN2CCN(CC(=O)O)CCN(CC(=O)O)CCN(CC(=O)O)CC2)CC1 (stereo not drawn) [Compound 4b, DO3A-tranexamic Acid Ester Derivative 1]	12.04	11.04	6.65	4.68	5.43	16.72	15.72	10.06	9.06	9.35	5.24	10.80	11.29								pZn [7]: 10.29
C=CCOC(=O)C1CCC(CNC(=O)CN2CCN(CC(=O)O)CCN(CC(=O)O)CCN(CC(=O)O)CC2)CC1 (stereo not drawn) [Compound 4c, DO3A-tranexamic Acid Ester Derivative 2]	14.77	13.77	6.55	2.21	3.91	16.99	15.99	10.44	9.43	8.64	5.45	10.62	13.08								pZn [7]: 12.08
O=C(O)CN(CCN(CC(=O)O)CC(=O)O)CCN(CC(=O)O)CC(=O)O [DTPA]														22.46	18.14	8.60	4.28	2.64	10.49	26.01	logKsel(Gd/Ca) (selectivity constant) [9]: 11.71; logKsel(Gd/Cu) (selectivity constant) [9]: 1.08; logKsel(Gd/Zn) (selectivity constant) [9]: 3.76; pGd [9]: 17.14; LogK [CaL]/[Ca][L] (stability constant) [10]: 10.75; logKCaL(pH7.4) (conditional stability constant) [10]: 6.43; pCa ([10]; pM = −log[M]free at pH7.4, [M]total = 1 μmol/dm^3, [L]total = 1.1 μmol/dm^3): 5.45; LogK [ZnL]/[Zn][L] (stability constant) [12]: 18.70; logKZnL(pH7.4) (conditional stability constant) [12]: 14.38; pZn [12]: 13.39; LogK [CuL]/[Cu][L] (stability constant) [13]: 21.38; logKCuL(PH7.4) (conditional stability constant) [13]: 17.06; pCu [13]: 16.06
O.O=C([O-])CN1CCN(CC(=O)[O-])CCN(CC(=O)NCC2CCC(C(=O)O)CC2)CCN(CC(=O)[O-])CC1.[Gd+3] (stereo not drawn) [Compound 5a]																					R1 relaxivity [8]: 3.9 ± 0.04 mM⁻¹ s⁻¹; R2 relaxivity [8]: 4.0 ± 0.04 mM⁻¹ s⁻¹; T1 relaxation time [8]: 256.43 ± 2.63^a msec; T2 relaxation time [8]: 250.02 ± 2.50 ms
O=C(O)CN(CCN(CC(=O)O)CC(=O)O)CCN(CC(=O)O)C(COCc1ccccc1)C(=O)O (stereo not drawn) [BOPTA]														22.6	18.4	8.21	4.35	2.83	10.71	26.10	logKZnL(pH7.4) (conditional stability constant) [12]: 13.9; logKCuL(PH7.4) (conditional stability constant) [13]: 17.3
CCOc1ccc(C[C@@H](CN(CCN(CC(=O)O)CC(=O)O)CC(=O)O)N(CC(=O)O)CC(=O)O)cc1 [EOB-DTPA]														23.46	18.7	8.63	4.26	2.73	10.91	26.53	
